The values that follow come from patent publication US20120251514A1, “MODULATED PROGRAMMED DEATH LIGAND-1” (University Health Network, priority 2009, published 2012).

The assay has as its system NSG host mice. The assay can be described thus: xGVHD model with SHP1/2 inhibitor-treated TEFF cells (Example 16). The class given is in vivo. Conditions: for Tbet+: engrafted human T cells; for Tbet+ / TNF-α / Absolute no. of Foxp3+ T cells expressing IFN-γ / Absolute no. of Foxp3+ T cells expressing IL-2 / Absolute no. of Foxp3+ T cells expressing TNF-α / Absolute no. of Foxp3− T cells expressing IL-2 / Absolute no. of Foxp3− T cells expressing TNF-α: TEFF & PDL1-LV transduced T cells; for Post LPS survival (%): human TEFF cells + monos + TPDL1, inhibitor treatment of Teff 100 μM, LPS day 5; for TNF-α: serum 120 min after LPS; for Absolute no. of Foxp3+ T cells expressing IFN-γ / Absolute no. of Foxp3+ T cells expressing IL-2 / Absolute no. of Foxp3+ T cells expressing TNF-α / Absolute no. of Foxp3− T cells expressing IL-2 / Absolute no. of Foxp3− T cells expressing TNF-α / Absolute no. of Foxp3− T cells expressing IFN-γ: spleen day 6, PMA/ionomycin; for Absolute no. of Foxp3− T cells expressing IFN-γ: TEFF (inhibitor-treated ex vivo where labelled) & PDL1-LV transduced T cells. From the text: Because PD1 receptor signaling occurs via SHP1/2, it was next hypothesized that ex vivo pharmacologic inhibition of this pathway using prevanadate and NSC87877 might also generate TEFF cells (TEFFShp1/2^in) resistant to the tolerizing effect of PDL1. NSG host mice received a combination of human Th1 cells (either unmodified, pervanadate-treated, or NSC87877-treated) and PDL1-LV transduced T cells. At day 6, absolute numbers of human T cells engrafted in the spleen were enumerated. Splenocyes were stimulated (PMA/ionomycin) and the absolute number of Foxp3-negative T cells expressing IFN-γ (i), IL-2 (ii), and TNF-α (iii) were quantified; conversely, […]
Recipients were challenged with LPS and serum was harvested 120 min later for measurement of TNF-α. Absolute numbers of engrafted human T cells expressing T-bet were quantified.
Cohorts of host mice received the human cell inocula specified, followed by LPS administration on day 5 post-transfer for assessment of lethal cytokine-mediated xGVHD.

With `O=S(=O)(O)c1ccc2cc(N=Nc3cc(S(=O)(=O)O)c4cccnc4c3O)ccc2c1` [NSC87877], the “Tbet+” value is on record as ~2.7 ×10^3, the “Post LPS survival (%)” value is listed as 0%, the TNF-α was approximately 0.42 µg/mL and the “Absolute no. of Foxp3+ T cells expressing IFN-γ” value is ~0.1 ×10^3. The “Absolute no. of Foxp3+ T cells expressing IL-2” value is reported as ~1.4 ×10^3, the “Absolute no. of Foxp3+ T cells expressing TNF-α” value was ~1.3 ×10^3, the “Absolute no. of Foxp3− T cells expressing IL-2” value is ~2.6 ×10^3 and the “Absolute no. of Foxp3− T cells expressing TNF-α” value is given as ~6.0 ×10^3. Further, the “Absolute no. of Foxp3− T cells expressing IFN-γ” value is on record as ~1.1 ×10^3.

As to pervanadate, the “Tbet+” value was ~2.0 ×10^3, the “Post LPS survival (%)” value is reported as 33%, the TNF-α is approximately 0.37 µg/mL and the “Absolute no. of Foxp3+ T cells expressing IFN-γ” value is “~.3 ×10^3”. The “Absolute no. of Foxp3+ T cells expressing IL-2” value is ~1.3 ×10^3, the “Absolute no. of Foxp3+ T cells expressing TNF-α” value is ~0.4 ×10^3, the “Absolute no. of Foxp3− T cells expressing IL-2” value is listed as ~2 ×10^3 and the “Absolute no. of Foxp3− T cells expressing TNF-α” value is recorded as ~3.9 ×10^3. Also, the “Absolute no. of Foxp3− T cells expressing IFN-γ” value is ~1.5 ×10^3.
